This note sets out measurements from ChEMBL document CHEMBL1131484, “Human growth hormone-releasing hormone hGHRH(1-29)-NH2: systematic structure-activity relationship studies” (J Med Chem, 1998).

Several values for one entry are separate records, joined by “and”; a condition that tells them apart may be missing. Identical values can stand only once. Square brackets hold non-standard residues; d marks the D form. Peptide text beside a SMILES is read from it. αMeY = C[C@](N)(Cc1ccc(O)cc1)C(=O)O; Nle = CCCC[C@H](N)C(=O)O

In this assay the target is T1, Growth hormone-releasing hormone receptor (Rattus norvegicus) (UniProt Q02644).
T1 sequence (whole entry): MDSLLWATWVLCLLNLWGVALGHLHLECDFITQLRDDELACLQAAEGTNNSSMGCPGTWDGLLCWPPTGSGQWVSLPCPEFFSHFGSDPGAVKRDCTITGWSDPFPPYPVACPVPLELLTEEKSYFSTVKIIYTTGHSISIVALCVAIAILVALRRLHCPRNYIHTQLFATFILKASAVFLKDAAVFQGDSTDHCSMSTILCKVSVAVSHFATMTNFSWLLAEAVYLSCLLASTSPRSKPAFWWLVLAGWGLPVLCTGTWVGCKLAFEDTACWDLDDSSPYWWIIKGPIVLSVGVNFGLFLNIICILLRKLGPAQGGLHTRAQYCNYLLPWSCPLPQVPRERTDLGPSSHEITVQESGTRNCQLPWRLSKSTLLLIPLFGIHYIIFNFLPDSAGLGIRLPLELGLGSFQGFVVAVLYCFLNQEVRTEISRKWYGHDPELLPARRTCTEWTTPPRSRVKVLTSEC
Nature of the assay: Potency for growth hormone releasing hormone receptor (GHRFR) relative to human GHRH(1-40)OH- in the rat pituitary cell culture assay. Conditions: Pituitary gland cell. Format: functional, cell-based.
The molecule `CC[C@H](C)[C@H](NC(=O)[C@H](C)NC(=O)[C@H](CC(=O)O)NC(=O)[C@H](C)NC(=O)[C@@H](N)Cc1ccc(O)cc1)C(=O)N[C@@H](Cc1ccccc1)C(=O)N[C@H](C(=O)N[C@H]1CCC(=O)NCCCC[C@H](C(=O)N[C@@H](CCCCN)C(=O)N[C@H](C(=O)N[C@@H](CC(C)C)C(=O)NCC(=O)N[C@@H](CCC(N)=O)C(=O)N[C@@H](CC(C)C)C(=O)N[C@@H](CO)C(=O)N[C@@H](C)C(=O)N[C@@H](CCCN=C(N)N)C(=O)N[C@@H](CCCCN)C(=O)N[C@@H](CC(C)C)C(=O)N[C@@H](CC(C)C)C(=O)N[C@@H](CCC(N)=O)C(=O)N[C@@H](CC(=O)O)C(=O)N[C@H](C(=O)N[C@@H](CCSC)C(=O)N[C@@H](CO)C(=O)N[C@@H](CCCN=C(N)N)C(N)=O)[C@@H](C)CC)C(C)C)NC(=O)[C@H](Cc2ccc(O)cc2)NC(=O)[C@H](CO)NC1=O)[C@@H](C)O` registered a Relative potency of 0.014. Then `CC[C@H](C)[C@H](NC(=O)[C@H](C)NC(=O)[C@H](CC(=O)O)NC(=O)[C@H](C)NC(=O)[C@@H](N)Cc1ccc(O)cc1)C(=O)N[C@@H](Cc1ccccc1)C(=O)N[C@H](C(=O)N[C@@H](CC(N)=O)C(=O)N[C@@H](CO)C(=O)N[C@@H](Cc1ccc(O)cc1)C(=O)N[C@@H](CCCN=C(N)N)C(=O)N[C@@H](CCCCN)C(=O)N[C@H](C(=O)N[C@@H](CC(C)C)C(=O)NCC(=O)N[C@@H](CCC(N)=O)C(=O)N[C@@H](CC(C)C)C(=O)N[C@@H](CO)C(=O)N[C@@H](C)C(=O)N[C@H](CCCN=C(N)N)C(=O)N[C@H](CCCCN)C(=O)N[C@H](CC(C)C)C(=O)N[C@H](CC(C)C)C(=O)N[C@@H]1CCC(=O)NCCCC[C@@H](C(=O)N[C@@H](CO)C(=O)N[C@@H](CCCN=C(N)N)C(N)=O)NC(=O)[C@H]([C@@H](C)CC)NC(=O)[C@@H](CC(=O)O)NC1=O)C(C)C)[C@@H](C)O`, with 1.3; and H-YADAIFTNSYRKVLGQLSARKLLQDAMSR-NH2, with 1.1. Turning to `CC[C@H](C)[C@H](NC(=O)[C@H](C)NC(=O)[C@H](CC(=O)O)NC(=O)[C@H](C)NC(=O)[C@@H](N)Cc1ccc(O)cc1)C(=O)N[C@@H](Cc1ccccc1)C(=O)N[C@H](C(=O)N[C@@H](CC(N)=O)C(=O)N[C@@H](CO)C(=O)N[C@@H](Cc1ccc(O)cc1)C(=O)N[C@@H](CCCN=C(N)N)C(=O)N[C@@H](CCCCN)C(=O)N[C@H](C(=O)N[C@@H](CC(C)C)C(=O)NCC(=O)N[C@@H](CCC(N)=O)C(=O)N[C@@H]1CCC(=O)NCCCC[C@@H](C(=O)N[C@H](CCCCN)C(=O)N[C@@H](CC(C)C)C(=O)N[C@@H](CC(C)C)C(=O)N[C@@H](CCC(N)=O)C(=O)N[C@@H](CC(=O)O)C(=O)N[C@H](C(=O)N[C@@H](CCSC)C(=O)N[C@@H](CO)C(=O)N[C@@H](CCCN=C(N)N)C(N)=O)[C@@H](C)CC)NC(=O)[C@H](C)NC(=O)[C@@H](CO)NC1=O)C(C)C)[C@@H](C)O`, the Relative potency is 0.23. The figure for H-YADAAFTNSYRKVLGQLSARKLLQDIMSR-NH2 is 0.1; for `CC[C@@H](C)[C@@H](NC(=O)[C@@H](C)NC(=O)[C@@H](CC(=O)O)NC(=O)[C@@H](C)NC(=O)[C@H](N)Cc1ccc(O)cc1)C(=O)N[C@H](Cc1ccccc1)C(=O)N[C@@H]1CCC(=O)NCCCC[C@@H](C(=O)N[C@@H](CCCN=C(N)N)C(=O)N[C@@H](CCCCN)C(=O)N[C@H](C(=O)N[C@@H](CC(C)C)C(=O)NCC(=O)N[C@@H](CCC(N)=O)C(=O)N[C@@H](CC(C)C)C(=O)N[C@@H](CO)C(=O)N[C@@H](C)C(=O)N[C@@H](CCCN=C(N)N)C(=O)N[C@@H](CCCCN)C(=O)N[C@@H](CC(C)C)C(=O)N[C@@H](CC(C)C)C(=O)N[C@@H](CCC(N)=O)C(=O)N[C@@H](CC(=O)O)C(=O)N[C@H](C(=O)N[C@@H](CCSC)C(=O)N[C@@H](CO)C(=O)N[C@@H](CCCN=C(N)N)C(N)=O)[C@@H](C)CC)C(C)C)NC(=O)[C@H](CO)NC(=O)[C@@H](CC(N)=O)NC1=O` it is 0.008.

`CC[C@@H](C)[C@@H](NC(=O)[C@@H](CC(=O)O)NC(=O)[C@@H](CCC(N)=O)NC(=O)[C@@H](CC(C)C)NC(=O)[C@H]1CCCCNC(=O)CC[C@H](NC(=O)[C@H](CO)NC(=O)[C@H](CC(C)C)NC(=O)[C@H](CCC(N)=O)NC(=O)CNC(=O)[C@H](CC(C)C)NC(=O)[C@@H](NC(=O)[C@H](CCCCN)NC(=O)[C@H](CCCN=C(N)N)NC(=O)[C@H](Cc2ccc(O)cc2)NC(=O)[C@H](CO)NC(=O)[C@H](CC(N)=O)NC(=O)[C@@H](NC(=O)[C@H](Cc2ccccc2)NC(=O)[C@@H](NC(=O)[C@H](C)NC(=O)[C@H](CC(=O)O)NC(=O)[C@H](C)NC(=O)[C@@H](N)Cc2ccc(O)cc2)[C@@H](C)CC)[C@@H](C)O)C(C)C)C(=O)N[C@@H](CCCN=C(N)N)C(=O)N[C@H](CCCCN)C(=O)N1)C(=O)N[C@@H](CCSC)C(=O)N[C@@H](CO)C(=O)N[C@@H](CCCN=C(N)N)C(N)=O`: the Relative potency came out at 0.4. Molecule H-YADAIFTNSYRKVLGQLSARKLLADIMSR-NH2 displayed a Relative potency of 1.3. The molecule H-YADAIFTNSYRKVLAQLSARKLLQDIMSR-NH2 showed a Relative potency of 5.6. Then H-YADAIFTNSYRKALGQLSARKLLQDIMSR-NH2, with 0.06; and `CCCC[C@H]1NC(=O)[C@H]([C@@H](C)CC)NC(=O)[C@H](NC(=O)[C@H](Cc2c[nH]cn2)NC(=O)[C@H](CC(C)C)NC(=O)[C@H](CC(C)C)NC(=O)[C@H](CCCCN)NC(=O)[C@H](CCCN=C(N)N)NC(=O)[C@H](Cc2ccccc2)NC(=O)[C@@H](NC(=O)[C@H](CC(C)C)NC(=O)[C@H](CCC(N)=O)NC(=O)[C@H](C)NC(=O)[C@H](CC(C)C)NC(=O)[C@@H](NC(=O)[C@H](CCCN=C(N)N)NC(=O)[C@H](CCCN=C(N)N)NC(=O)[C@H](Cc2ccc(O)cc2)NC(=O)[C@H](CO)NC(=O)[C@H](CO)NC(=O)[C@@H](NC(=O)[C@H](Cc2ccccc2)NC(=O)[C@@H](NC(=O)[C@H](C)NC(=O)[C@H](CC(=O)O)NC(=O)[C@H](C)NC(=O)[C@@](C)(N)Cc2c[nH]cn2)[C@@H](C)CC)[C@@H](C)O)[C@@H](C)CC)[C@@H](C)CC)CSSC[C@@H](C(N)=O)NC(=O)[C@H](CC(N)=O)NC1=O`, with 1.9 and 4.4; and H-YADAIFTNSYRKVLGQASARKLLQDIMSR-NH2, with 0.39. The figure for `CCCC[C@H](NC(=O)[C@@H](NC(=O)[C@H](CC(=O)O)NC(=O)[C@H](CCC(N)=O)NC(=O)[C@H](CC(C)C)NC(=O)[C@H](CC(C)C)NC(=O)[C@H](CCCCN)NC(=O)[C@H](CCCN=C(N)N)NC(=O)[C@H](C)NC(=O)[C@H](CO)NC(=O)[C@H](CC(C)C)NC(=O)[C@H](CCC(N)=O)NC(=O)[C@H](C)NC(=O)[C@H](CC(C)C)NC(=O)[C@@H](NC(=O)[C@H](CCCCN)NC(=O)[C@H](CCCN=C(N)N)NC(=O)[C@H](Cc1ccc(O)cc1)NC(=O)[C@H](CO)NC(=O)[C@H](CC(N)=O)NC(=O)[C@@H](NC(=O)[C@H](Cc1ccccc1)NC(=O)[C@@H](NC(=O)[C@H](C)NC(=O)[C@H](CC(=O)O)NC(=O)[C@H](C)NC(=O)[C@@](C)(N)Cc1ccc(O)cc1)[C@@H](C)CC)[C@@H](C)O)C(C)C)[C@@H](C)CC)C(=O)N[C@@H](CO)C(=O)N[C@@H](CCCN=C(N)N)C(N)=O` (H-[αMeY]ADAIFTNSYRKVLAQLSARKLLQDI[Nle]SR-NH2) is 5.8.
